Assay results: patent EP0314302A2, “Herbicidal o-carbomethoxy-sulfonylureas” (E.I. DU PONT DE NEMOURS AND COMPANY, priority 1987, dated 1989)

Assays:
Lalang = experiment: Test 9 postemergence; assay type: in vivo; conditions: scale 0-100
Black mustard = experiment: Test 7 postemergence; assay type: in vivo, Brassica nigra; conditions: scale 0-100
Experimental: (§1) Individual 11.4-cm plastic pots filled with planting medium were seeded with rape, wild radish (Raphanus raphanistruna). tansy mustard (Descurainia pinnata), ball mustard (Neslia paniculata), black mustard (Brassica nigra), yellow mustard, brown mustard, lentils, safflower, flax, sunflower, peanut, vetch, alfalfa, field bean, pea, violet (Viola spp), Kochia (Kochia spp), Russian thistle (Salsola spp), Matricaria spp, groundsel (Senecio spp), shepherdspurse (Capsella bursa-pastoris), nightshade (Solanum spp), sowthistle (Sonchus spp), sugar beet, wheat, "Bonanza" barley and "Morex" barley, Kentucky bluegrass (Poa pratensis), red clover (Trifolium pratense), dandelion (Taraxacum spp) and buckhorn plantain (Plantago lanceolata).
(§2) Plants were treated postemergence with the compound formulated with a non-phytotoxic carrier. Plants were visually rated 18 days after treatment (DAT). Response ratings were based on the scale of 0 to 100 where 0 = no effect, 20 = minimal injury and 100 = complete control.

Itchgrass = experiment: Test 5 sugarcane injury and weed control, postemergence; assay type: in vivo, Rottboellia exaltata; conditions: scale 0-100
Experimental: Sugarcane (Saccharum spp.) cuttings which had been pre-sprouted were planted in 15-cm plastic pots. Narrowleaf panicum (Panicum maximum), large crabgrass (Digitaria sanguinalis), guineagrass (P. maximum) and itchgrass (Rottboellia exaltata) were seeded in individual 15-cm plastic pots.
The pots were treated postemergence when the plants had 3 to 4 leaves with 2 to 3 tillers with Compound I formulated in a non-phytotoxic carrier made up of acetone-humectant-water-surfactant (22:1:1:0.05 v/v). The degree of crop injury and weed control was visually rated 27 days after treatment (DAT). Plant injury ratings are based on the scale of 0 to 100 where 0 = no effect, 20 = minimal injury and 100 = complete control.

Broadleaf signalgrass = experiment: Test 11 windowsill flats, postemergence; assay type: in vivo, Brachiaria platyphylla; conditions: Postemergence 32 g/ha, 0.25% X-77 surfactant, scale 0-100
Experimental: Budded citrus seedlings were planted in 30-liter plastic pots which were also seeded with sandbur, guineagrass, narrowleaf panicum, common ragweed, yellow nutsedge, purple nutsedge and bindweed. Compound I was applied preemergence and postemergence to the weeds. Treatments were sprayed to simulate the trunk-to-trunk herbicide application method used in some citrus groves. The compound was also applied postemergence to weeds grown in windowsill flats. The flats were filled with planting medium and seeded with morningglory (Ipomoea spp.). purple nutsedge (Cyperus rotundus), pigweed (Amaranthus spp.), bindweed (Convolvulus spp.), narrowleaf panicum (Panicum maximum), common ragweed (Ambrosia artemisiifolia), sandbur (Cenchrus echinatus), itchgrass (Rottboellia exaltata), johnsongrass (Sorghum halepense), guineagrass (Panicum maximum), smooth crabgrass (Digitaria ischaemum), broadleaf signalgrass (Brachiaria platyphylla), bermudagrass (Cynodon dactylon), goosegrass (Eleusine indica), large crabgrass (Digitaria sanguinalis) and yellow nutsedge (Cyperus esculentus).
The compound was formulated and sprayed with 0.25% X-77 surfactant in water. Plants were visually rated 21 and 29 days after treatment and compared with appropriate controls. Injury ratings were based on the scale of 0 to 100, where 0 indicates no effect, 20 indicates minimum effect and 100 indicates complete control. […]

Convolvulus arvensis = experiment: Test 1 greenhouse, postemergence; assay type: in vivo; conditions: 21 days, scale 0-100
Experimental: (§3) Seeds of Bromus tectorum, Kochia scoparia, Salsoa kali, Avena fatua, Convolvulus arvensis, Secale cereale, Setaria viridis and Triticum aestivum were placed in 26-cm plastic pans containing a pasteurized sandy loam soil (pH 6.5, 1% organic matter). Plantings were maintained in the greenhouse for 18-28 days at which time the postemergence treatments were applied using a nonphytotoxic solvent as the carrier for the herbicide. The preemergence segment of the test was seeded immediately before herbicide application using Bromus tectorum, Kochia scoparia, Polygonum convolvulus, Salsoa kali, Avena fatua, Convolvulus arvensis, Secale cereale, Setaria viridis, Aegilops cylindrica, Amaranthus retroflexus, Chenopodium album, Hordeum vulgare, Triticum aestivum, Sorghum bicolor, and Zea mays. All treatments were maintained in the greenhouse for an additional 21 days at which time visual assessment of weed control was determined using a scale of 0 to 100 for each species where 0 represented no control and 100 represented complete control.

Triticum aestivum = experiment: Test 1 greenhouse, postemergence; assay type: in vivo; conditions: 21 days, scale 0-100
Experimental: as §3

Kochia scoparia = experiment: Test 1 greenhouse, postemergence; assay type: in vivo; conditions: 21 days, scale 0-100
Experimental: as §3

Secale cereale = experiment: Test 1 greenhouse, postemergence; assay type: in vivo; conditions: 21 days, scale 0-100
Experimental: as §3

Setaria viridis = experiment: Test 1 greenhouse, postemergence; assay type: in vivo; conditions: 21 days, scale 0-100
Experimental: as §3

Avena fatua = experiment: Test 1 greenhouse, postemergence; assay type: in vivo; conditions: 21 days, scale 0-100
Experimental: as §3

Salsoa kali = experiment: Test 1 greenhouse, postemergence; assay type: in vivo; conditions: 21 days, scale 0-100
Experimental: as §3

Bromus tectorum = experiment: Test 1 greenhouse, postemergence; assay type: in vivo; conditions: 21 days, scale 0-100
Experimental: as §3

Red clover = experiment: Test 7 postemergence; assay type: in vivo, Trifolium pratense; conditions: scale 0-100
Experimental: as §1, §2

Sheperdspurse = experiment: Test 7 postemergence; assay type: in vivo, Capsella bursa-pastoris; conditions: scale 0-100
Experimental: as §1, §2

Kochia = experiment: Test 7 postemergence; assay type: in vivo, Kochia spp; conditions: scale 0-100
Experimental: as §1, §2

`COC(=O)c1cccnc1S(=O)(=O)NC(=O)Nc1nc(OC)cc(OC)n1` [Compound I, 2-[[(4,6-dimethoxypyrimidin-2-yl)aminocarbonyl]aminosulfonyl]-3-pyridinecarboxylic acid, methyl ester] was tested, and the “Plant Injury Rating 22 DAT” value (Lalang; 8 g/ha) was 0, the “Plant Injury Rating 22 DAT” value (Lalang; 16 g/ha) was 0 and the “Plant Injury Rating 22 DAT” value (Lalang; 32 g/ha) was 20. For the same compound, the “Plant Injury Rating 18 DAT” value (Black mustard; 16 g/ha) was 100, the “Plant Injury Rating 18 DAT” value (Black mustard; 32 g/ha) was 100 and the “Plant Injury Rating 27 DAT” value (Itchgrass; 8 g/ha) was 80. For the same compound, the “Plant Injury Rating 27 DAT” value (Itchgrass; 16 g/ha) was 80, the “Plant Injury Rating 27 DAT” value (Itchgrass; 32 g/ha) was 100 and the “Plant Injury Rating 27 DAT” value (Itchgrass; 64 g/ha) was 100. For the same compound, the Injury ratings (Broadleaf signalgrass) was 100, the “visual assessment of weed control” value (Convolvulus arvensis; 4 g/ha) was 90 and the “visual assessment of weed control” value (Convolvulus arvensis; 8 g/ha) was 100. The “visual assessment of weed control” value (Convolvulus arvensis; 16 g/ha) was 100, the “visual assessment of weed control” value (Convolvulus arvensis; 32 g/ha) was 100 and the “visual assessment of weed control” value (Convolvulus arvensis; 64 g/ha) was 100. For the same compound, the “visual assessment of weed control” value (Convolvulus arvensis; 125 g/ha) was 100, the “visual assessment of weed control” value (Triticum aestivum; 4 g/ha) was 90 and the “visual assessment of weed control” value (Triticum aestivum; 8 g/ha) was 100. For the same compound, the “visual assessment of weed control” value (Triticum aestivum; 16 g/ha) was 100, the “visual assessment of weed control” value (Triticum aestivum; 32 g/ha) was 100 and the “visual assessment of weed control” value (Triticum aestivum; 64 g/ha) was 100. For the same compound, the “visual assessment of weed control” value (Triticum aestivum; 125 g/ha) was 100, the “visual assessment of weed control” value (Kochia scoparia; 4 g/ha) was 100 and the “visual assessment of weed control” value (Kochia scoparia; 8 g/ha) was 100. For the same compound, the “visual assessment of weed control” value (Kochia scoparia; 16 g/ha) was 100, the “visual assessment of weed control” value (Kochia scoparia; 32 g/ha) was 100 and the “visual assessment of weed control” value (Kochia scoparia; 64 g/ha) was 100. For the same compound, the “visual assessment of weed control” value (Kochia scoparia; 125 g/ha) was 100, the “visual assessment of weed control” value (Secale cereale; 4 g/ha) was 70 and the “visual assessment of weed control” value (Secale cereale; 8 g/ha) was 100. For the same compound, the “visual assessment of weed control” value (Secale cereale; 16 g/ha) was 100, the “visual assessment of weed control” value (Secale cereale; 32 g/ha) was 100 and the “visual assessment of weed control” value (Secale cereale; 64 g/ha) was 100. The “visual assessment of weed control” value (Secale cereale; 125 g/ha) was 100, the “visual assessment of weed control” value (Setaria viridis; 4 g/ha) was 90 and the “visual assessment of weed control” value (Setaria viridis; 8 g/ha) was 90. For the same compound, the “visual assessment of weed control” value (Setaria viridis; 16 g/ha) was 100, the “visual assessment of weed control” value (Setaria viridis; 32 g/ha) was 100 and the “visual assessment of weed control” value (Setaria viridis; 64 g/ha) was 100. The “visual assessment of weed control” value (Setaria viridis; 125 g/ha) was 100, the “visual assessment of weed control” value (Avena fatua; 4 g/ha) was 80 and the “visual assessment of weed control” value (Avena fatua; 8 g/ha) was 80. For the same compound, the “visual assessment of weed control” value (Avena fatua; 16 g/ha) was 100, the “visual assessment of weed control” value (Avena fatua; 32 g/ha) was 100 and the “visual assessment of weed control” value (Avena fatua; 64 g/ha) was 100. The “visual assessment of weed control” value (Avena fatua; 125 g/ha) was 100, the “visual assessment of weed control” value (Salsoa kali; 4 g/ha) was 100 and the “visual assessment of weed control” value (Salsoa kali; 8 g/ha) was 100. For the same compound, the “visual assessment of weed control” value (Salsoa kali; 16 g/ha) was 100, the “visual assessment of weed control” value (Salsoa kali; 32 g/ha) was 100 and the “visual assessment of weed control” value (Salsoa kali; 64 g/ha) was 100. For the same compound, the “visual assessment of weed control” value (Salsoa kali; 125 g/ha) was 100, the “visual assessment of weed control” value (Bromus tectorum; 4 g/ha) was 100 and the “visual assessment of weed control” value (Bromus tectorum; 8 g/ha) was 100. For the same compound, the “visual assessment of weed control” value (Bromus tectorum; 16 g/ha) was 100, the “visual assessment of weed control” value (Bromus tectorum; 32 g/ha) was 100 and the “visual assessment of weed control” value (Bromus tectorum; 64 g/ha) was 100. For the same compound, the “visual assessment of weed control” value (Bromus tectorum; 125 g/ha) was 100, the “Plant Injury Rating 18 DAT” value (Red clover; 16 g/ha) was 100 and the “Plant Injury Rating 18 DAT” value (Red clover; 32 g/ha) was 100. The “Plant Injury Rating 18 DAT” value (Sheperdspurse; 16 g/ha) was 100, the “Plant Injury Rating 18 DAT” value (Sheperdspurse; 32 g/ha) was 100 and the “Plant Injury Rating 18 DAT” value (Kochia; 16 g/ha) was 100. The “Plant Injury Rating 18 DAT” value (Kochia; 32 g/ha) was 100.
